Source: EP0519427A2, “N-substituted-3-iodopropiolamide, production and use thereof” (priority 1991, dated 1992)

Key:
Format in all cases: cell-based
[1] = test system: Aureobasidium pullulans (de Bary) Arnaud IFO 6353; assay: Fungicide activity for wood fungicide (rating of fungi growth on treated wood); conditions: beech specimens dipped 3 min in fungicide solution, 4 weeks culture; rating 0 (no growth) to 3; mean of 6 specimens
Protocol: (§1) This test was conducted according to Specification No.2 of Japan Wood Preserving Association, enacted in 1979 and titled "Test methods of fungicide activity for wood fungicide".
(§2) • ① Aspergillus niger van Tieghem IFO 6341 = ATCC 6275 • ② Penicillium funiculosum Thom (formerly : Penicillium luteum Zukal) IFO 6345 = ATCC 9644 • ③ Rhizopus javanicus Takeda (formerly : Rhizopus nigricans Ehrenberg S.N. 32) IFO 6354 • ④ Aureobasidium pullulans (de Bary) Arnaud IFO 6353 = IAM (H. Iizuka, F-24) • ⑤ Gliocladium virens Miller, Gidden & Fosteb IFO 6355 = ATCC 9645 (formerly : Trichoderma viride, T.I.)
(§3) The fungi ① , ② , ③ and ⑤ are classified as fungi imperfecti, and the fungus ④ as blue stain fungus.
(§4) The Culture medium comprised the potato-sap agar culture medium (specified in the Japan Industrial Standard (JIS) Z 2911- 1960) of 50 ml, put in the conical flask of 100 ml, sterilized by steam at 1.4-1.6 kgf/cm² .G (137.2-156.8 KPa) for 30 minutes.
(§5) The fungi to be used were inoculated into the culture medium specified in the previous section and were cultured at 26 ± 2 °C under the relative humidity of 70-80 % for two weeks.
(§6) The potato sap of 50 ml, sterilized, cooled to room temperature and to which dioctyl sodium sulfosuccinate, a wetting agent, was added so as to become 0.005 %, was dropped to the fully breeding fungi layer, and was agitated with a platinum spatula in such a way that the spore was torn off. The resulting liquid filtered by sterilized gauze was the spore suspension.
(§7) 3-5-1 A Petri dish measured 90-100 mm in diameter and 20 mm in height.
(§8) 3-5-2 Agar liquid (which has no nutrients) of 2 % sterilized by steam was dropped onto the Petri dish sterilized by dry heat, and then was solidified.
(§9) 3-5-3 Three mm diameter sterilized glass bars or plastic nets made of polypropylene, etc. were placed to prevent the test specimens from touching with agar directly.
(§10) 3-6-1 The type of trees for wood specimens was beech. The cross section was of grain face, and the dimension was 20 mm wide 3 mm thick and 50 mm long.
(§11) 3-6-2 Wood specimens were supplied with nutrients in such a way that they were dipped into the potato-sap (the one in the section 3-2, but agar was not added) for 3 minutes.
(§12) 3-6-3 Nutrient-supplied wood specimens, after drying at 60 °C, were used for testing immediately. They were temporarily stored at 0 °C, but they were served to tests as soon as possible.
(§13) The test specimens were of two types, treated and untreated speciments. The treated specimens referred to the one treated with fungicide. The untreated specimens were of two types, the one really untreated and the other treated with solvent only.
(§14) 3-7-2-1 Nutrients-supplied wood specimens were dried at 60 ± 2 °C, and then their weights (W₀) were measured. Test specimens of 10-20 pieces were piled up in a one liter beaker in such a way that two specimens constant space apart from each other were alternately put on the other two specimens also constant space apart from each other. On the top of the two specimens, a weight was placed. Through the test specimens thus arranged, the fungicide solution was introduced. The level of the fungicide solution was one centimeter above the top specimens. The test specimens were dipped for three minutes after the fungicide solution introduction.
(§15) After finishing dipping, the test specimens were wiped softly, and then the weights (W₁) were measured immediately. As control experiment, the same procedure as the above was done using solvent without fungicide.
(§16) 3-7-2-2 The amounts of solution pick-up and fungicide pick-up were calculated with the following equations: The amount of solution absorption: RL = W₁ - W₀ [formula] The amount of fungicide absorption: Rc = RL × fungicide concentration [formula] 3-7-2-3 Wood specimens treated were placed without contacting each other, then were air-dried for two days, and then served as the treated test specimens. […]

[2] = test system: Penicillium funiculosum Thom IFO 6345; assay: as above; conditions: beech specimens dipped 3 min in fungicide solution, 4 weeks culture; rating 0 (no growth) to 3; mean of 6 specimens
Protocol: as §1, §2, §3, §4, §5, §6, §7, §8, §9, §10, §11, §12, §13, §14, §15, §16

[3] = test system: Gliocladium virens Miller, Gidden & Fosteb IFO 6355; assay: as above; conditions: beech specimens dipped 3 min in fungicide solution, 4 weeks culture; rating 0 (no growth) to 3; mean of 6 specimens
Protocol: as §1, §2, §3, §4, §5, §6, §7, §8, §9, §10, §11, §12, §13, §14, §15, §16

[4] = test system: Aspergillus niger van Tieghem IFO 6341; assay: as above; conditions: beech specimens dipped 3 min in fungicide solution, 4 weeks culture; rating 0 (no growth) to 3; mean of 6 specimens
Protocol: as §1, §2, §3, §4, §5, §6, §7, §8, §9, §10, §11, §12, §13, §14, §15, §16

[5] = test system: Rhizopus javanicus Takeda IFO 6354; assay: as above; conditions: beech specimens dipped 3 min in fungicide solution, 4 weeks culture; rating 0 (no growth) to 3; mean of 6 specimens
Protocol: as §1, §2, §3, §4, §5, §6, §7, §8, §9, §10, §11, §12, §13, §14, §15, §16

[6] = test system: Coriolus versicolor(L. ex Fr.) Quélet, FFPRI 1030; assay: Preserving activity for wood preservatives (weight loss of treated wood); conditions: beech sapwood specimens, 110 ± 10 g/m² preservative applied (0.5% xylene solution per table note), eight weeks at 26 ± 2 °C; lower = higher preserving activity
Protocol: (§17) This test was conducted according to Specification No.1 of Japan Wood Preserving Association, enacted in 1979, amended in 1989 and titled "Test methods of preserving activity for wood preservatives used in the coating, spraying and dipping treatment".
(§18) • ① Tyromyces palustris (Ber. et Curt.) Murr., FFPRI 0507 --"Ouzuratake" • ② Coriolus versicolor(L. ex Fr.) Quélet, FFPRI 1030 --"Kawaratake"
(§19) These two fungi are classified as wood rot fungi.
(§20) Culture media comprised culture jars (cylindrical jars of bottom diameter 8-9 cm, opening diameter 6-7 cm and height 15-18 cm), in which quartz sand of 250 g (the size of which corresponds to 20-30 mesh) was put first, and then the solution of 70 ml containing 2.0 % malt extracts and 1.0 % peptone was introduced, over which chips of the beech or other broadleaf tree were spread at about 2 mm thickness, and then sterilized at 120 °C for 30 minutes in the wet heated sterilizer.
(§21) Fungi were cultured at 26 ± 2 °C with shaking using the culture solution of 2.0 % malt extracts and 1.0 % peptone. After sufficient breeding was obtained, the fungi solution of about 3 ml was spread all over the culture medium, and then the fungi were cultured at 26 ± 2 °C with the relative humidity of over 70 %. After 10-15 days when the fungi layer sufficiently covered the culture medium, the fungi were served for the tests.
(§22) Wood specimens were the sapwood of intact cedar and beech, the dimension of which was 5 mm thick, 20 mm wide and 40 mm long. The grain face was of 20 mm width and 40 mm length. The side faces were treated with cold-setting epoxy resin.
(§23) The antimicrobial operation was performed with specifying types of fungi for corresponding type of trees. The combinations were as follows: Cedar----Tyromyces palustris ("Ouzuratake") Beech----Coriolus versicolor ("Kawaratake")
(§24) The test specimens were of two types, treated and untreated specimens, respectively.
(§25) The treated specimens referred to the wood specimens coated by brushing, spraying or dipping with wood preservatives. The amount of applied preservatives was 110 ± 10 g/m².
(§26) The amount of applied preservatives for each test specimen was calculated by the following equation:
(§27) The amount of applied preservatives (g/m²)=(W₁-W₂)/A wherein W₁ : weight of the test specimen after absorption(g), W₂ : weight of the test specimen before absorption(g) and A: surface area of test specimen except both butt surfaces (m²)
(§28) 2-7-1 The test specimens prepared in the previous section were dried at 60 ± 2 °C with a recirculating dryer for 48 hours, and were allowed to stand in a desiccator for about 30 minutes, and then the weight (W₃) was measured to an accuracy of 0.01 g.
(§29) 2-7-2 Three of each treated and untreated specimens were assembled in the Teflon casing. After sterilizing, the two assemblies were put on their 40 × 5 mm face on the fungi layer in the separate jar. They were kept at 26 ± 2 °C under the relative humidity of over 70 % for eight weeks.
(§30) 2-7-3 After the eight weeks had elapsed, the test specimens were taken out, and mycelia and other attachments of them were removed neatly. After air-drying for 24 hours, the test specimens were dried at 60 ± 2 °C in a recirculating dryer for 48 hours, and were allowed to stand in a desiccator for about 30 minutes, and then the weight (W₄) was measured to an accuracy of 0.01 g.
(§31) The test results were presented by the ratio of average weight loss of test specimens due to antimicrobial operation. The standard deviation and coefficient of variation were also determined. The ratio of weight loss for each test specimen was calculated by the following equation, and its average was also determined: The ratio of weight loss(%) = (W₃ - W₄) / W₃ × 100 [formula] . Lower value of the ratio of weight loss corresponds to higher wood preserving activity. […]

[7] = test system: Tyromyces palustris (Ber. et Curt.) Murr., FFPRI 0507; assay: as above; conditions: cedar sapwood specimens, 110 ± 10 g/m² preservative applied (0.5% xylene solution per table note), eight weeks at 26 ± 2 °C; lower = higher preserving activity
Protocol: as §17, §18, §19, §20, §21, §22, §23, §24, §25, §26, §27, §28, §29, §30, §31

[8] = test system: Aspergillus Niger (IFO 6341), Penicillium funiculosum (IFO 6345), Rhizopus javanicus (IFO 6354), Aureobasidium pullulans (IFO 6353), Gliocladium virens (IFO …); assay: Fungicide activity for wood fungicide, sum of average ratings and damage value over the five fungi
Protocol: as §1, §2, §3, §4, §5, §6, §7, §8, §9, §10, §11, §12, §13, §14, §15, §16

For `CCCCNC(=O)OCC#CI` [R, I-C≡CCH₂O-CO-NH(CH₂)₃CH₃, reference compound], the “Average rating value, A₄ : Aureobasidium pullulans (IFO 6353)” value [1] was 0.0, the “Average rating value, A₂ : Penicillium funiculosum (IFO 6345)” value [2] was 0.0 and the “Average rating value, A₅ : Gliocladium virens (IFO 6355)” value [3] was 0.0. For the same molecule, the “Average rating value, A₁ : Aspergillus Niger (IFO 6341)” value [4] was 0.0, the “Average rating value, A₃ : Rhizopus javanicus (IFO 6354)” value [5] was 2.0 and the “Ratio of weight loss (%), C. versicolor” value [6] was 6.4%. For the same molecule, the “Ratio of weight loss (%), T. palustris” value [7] was 1.3%, the damage value ([8]; D = S₁ / S₀ × 100, untreated 100.0, lower = higher fungicide activity) was 13.3 and the “Sum (of average rating values A₁ to A₅)” value ([8]; S = A₁ + A₂ + A₃ + A₄ + A₅, untreated 15.0) was 2.0.
